Laboratory results reported in publication PMC6474902, “Examination of novel 4-aminoquinoline derivatives designed and synthesized by a hybrid pharmacophore approach to enhance their anticancer activities” (Scientific Reports, 2019).
Like-named read-outs stand apart in the source and are kept apart here.

Key:
MCF7 = experiment: SRB antiproliferative/antigrowth assay; format: cell-based, human; conditions: for GI50: SRB, 48 h post-treatment, mean of triplicates of at least two experiments, read-out: GI50 MCF7
Protocol: (§1) The antigrowth effects of 4-piperazinylquinoline sulfonyl analogs on human breast tumor cells was initially evaluated using MDA-MB468 (a PTEN defective, EGFR positive breast adenocarcioma), MDA-MB231 (p53 and pRB mutated, triple-negative breast carcinoma), and MCF7 (p53+/−, invasive ductal breast carcinoma) cell lines. In addition, the cytotoxicity of all the compounds was also evaluated with the 184B5 and MCF10A non-cancer immortalized breast epithelial cell lines, to determine if these newly synthesized compounds have differential cytotoxic effects on cancer and non-cancer cells. The panel of three breast cancer cell lines with different genetic back ground and the well-studied two non-cancer immortalized breast cell lines would provide insights into the efficacy and toxicity of the test compounds in the different genetic background and at different stages of tumor development. The dose response of each cell line was established by determining the number of viable cells after 48 h of continuous drug treatment against seven different concentrations (100 µM to 0.0064 µM) of each compound. The reading of sulphorodamine B (SRB) staining is known to accurately reflect the level of total cellular macromolecules/cell growth/proliferation[6],[23]. […] The data for CQ and cisplatin were included as references. […] The differences in the GI50 values may be attributable to such factors as the nature of the sulfonyl group and the halogen substitution on the 7th position of the 4-piperazinylquinoline ring system, and the genetic and biochemical background of the cell lines.
(§2) Antiproliferative/antigrowth effects were determined by a SRB-based protocol[6],[23]. For a typical screening experiment, 5,000–10,000 cells were inoculated into 100 µL medium per well of a 96-well microtiter plate as described previously. Briefly, after the inoculation, the microtiter plate was incubated at 37 °C, 5% CO2, 95% air and 100% relative humidity for 24 h, prior to addition of experimental drugs. Some of the sample wells were fixed with 25 µL of 50% tricholoroacetic acid (TCA) as a control of the cell population for each cell line at the time of drug addition (Tz). An aliquot of the frozen stock was thawed and diluted to a desired final maximum test-concentration with complete medium. Two to ten-fold serial dilutions were made to provide a total of seven drug concentrations (and a control [C]). Following addition of drugs, the culture plate was incubated for additional 48 h. Cells were fixed in situ by slowly adding 25 µL of ice-cold 50% (w/v) TCA (final concentration, 10% TCA), and were then incubated for 60 min at 4 °C. The supernatant was discarded, and the plate was washed five times with tap water, followed by air-dry. 50 µL of SRB solution at 0.4% (w/v) in 1% acetic acid was added to each well, and the plate was incubated for >30 min at room temperature. Unbound SRB was removed by five washes with tap water, followed by air-drying. The cells “stained” with SRB were solubilized with 10 mM trizma base, and the absorbance was read on an automated plate reader at a wavelength of 515–564 nm. The relative growth rate (%) was calculated for each of the compound concentrations according to the following formula: (Ti−Tz)/(C−Tz)×100
(§3) In the formula, time zero (Tz), control growth (C), and OD for different concentration of tested compounds (Ti). The GI50 for each compound was obtained from a non-linear Sigmoidal dose-response (variable slope) curve which is fitted by GraphPad Prism v.4.03 software. Values were calculated for each of these parameters if the level of activity was reached. However, if the effect was not reached or was exceeded, the value for that parameter was expressed as greater or less than the maximum or minimum concentration tested.

MDA-MB468 = experiment: SRB antiproliferative/antigrowth assay; format: cell-based, human; conditions: SRB, 48 h post-treatment, mean of triplicates of at least two experiments, read-out: GI50 MB468
Protocol: as §1, §2, §3

MDA-MB231 = experiment: SRB antiproliferative/antigrowth assay; format: cell-based, human; conditions: for GI50: SRB, 48 h post-treatment, mean of triplicates of at least two experiments, read-out: GI50 MB231
Protocol: as §1, §2, §3

MCF10A = experiment: SRB antiproliferative/antigrowth assay, non-cancer cells; format: cell-based, human; conditions: SRB, 48 h post-treatment, non-cancer breast epithelial cells, read-out: GI50 MCF10A
Protocol: as §1, §2, §3

184B5 = experiment: as above; format: cell-based, human; conditions: SRB, 48 h post-treatment, non-cancer breast epithelial cells, read-out: GI50 184B5
Protocol: as §1, §2, §3

Row | Molecule | GI50 (MCF7; Homo sapiens, MCF7, 48 h) | GI50 (MDA-MB468; Homo sapiens, MDA-MB-468, 48 h) | increase in potency on MDA-MB231 in comparison to methyl substituted compounds (25 and 34) (MDA-MB231) | GI50 (MDA-MB231; Homo sapiens, MDA-MB-231, 48 h) | melting point | GI50 (MCF10A; Homo sapiens, MCF-10A, 48 h) | GI50 (184B5; Homo sapiens, 184B5, 48 h) | increase in antigrowth activity on MCF7 in comparison to methyl substituted compound 7 (MCF7) | GI50 (MCF7) | more effective than cisplatin (MCF7) (MCF7; ratio of GI50 values) | GI50 (MDA-MB468) | GI50 (MDA-MB231) | more effective than cisplatin (MDA-MB231) (MDA-MB231; ratio of GI50 values) | GI50 (MCF10A) | GI50 (184B5)
1 | O=S(=O)(NCCCNc1ccnc2cc(C(F)(F)F)ccc12)c1ccc(Cl)cc1 [Compound 37, 4-Chloro-N-[3-(7-trifluoromethyl-quinolin-4-ylamino)-propyl]-benzenesulfonamide] | 5.4 ± 0.3 µM | 10.3 ± 0.6 µM | 3.5–4.4 fold | 12.8 ± 0.9 µM | 70 to 72 °C | 17.4 ± 0.1 µM | 7.6 ± 0.4 µM |  |  |  |  |  |  |  | 
2 | O=S(=O)(NCCCNc1ccnc2cc(C(F)(F)F)ccc12)c1ccc(-c2ccccc2)cc1 [Compound 36, Biphenyl-4-sulfonic acid [3-(7-trifluoromethyl-quinolin-4-ylamino)-propyl]-amide] | 3.6 ± 0.3 µM | 4.2 ± 0.2 µM |  | 6 ± 0.4 µM | 110 to 112 °C | 2.2 ± 0.3 µM | 2.8 ± 0.1 µM |  |  |  |  |  |  |  | 
3 | CN(C)c1cccc2c(S(=O)(=O)NCCCNc3ccnc4cc(C(F)(F)F)ccc34)cccc12 [Compound 41, 5-Dimethylamino-naphthalene-1-sulfonic acid [3-(7-trifluoromethyl-quinolin-4-ylamino)-propyl]-amide] | 7.7 ± 0.6 µM | 9.7 ± 0.3 µM |  | 14.2 ± 1 µM | 199 to 201 °C | 6.5 ± 0.3 µM | 3.7 ± 0.2 µM |  |  |  |  |  |  |  | 
4 | O=S(=O)(NCCCNc1ccnc2cc(Cl)ccc12)c1ccc(-c2ccccc2)cc1 [Compound 27, Biphenyl-4-sulfonic acid [3-(7-chloro-quinolin-4-ylamino)-propyl]-amide] | 2.5 ± 0.2 µM | 4.5 ± 0.4 µM |  | 4.6 ± 0.4 µM | 116 to 118 °C | 2.6 ± 0.1 µM | 2.4 ± 0.1 µM |  |  |  |  |  |  |  | 
5 | CN(C)c1cccc2c(S(=O)(=O)N3CCN(c4ccnc5cc(C(F)(F)F)ccc45)CC3)cccc12 [Compound 23, Dimethyl-{5-[4-(7-trifluoromethyl-quinolin-4-yl)-piperazine-1-sulfonyl]-naphthalen-1-yl}-amine] | 12.9 ± 0.2 µM | 19.1 ± 0.6 µM |  | 22.1 ± 0.6 µM | 98 to 100 °C | 15.4 ± 0.5 µM | 12 ± 0.2 µM |  |  |  |  |  |  |  | 
6 | O=[N+]([O-])c1cccc(S(=O)(=O)NCCCNc2ccnc3cc(C(F)(F)F)ccc23)c1 [Compound 39, 3-Nitro-N-[3-(7-trifluoromethyl-quinolin-4-ylamino)-propyl]-benzenesulfonamide] | 8.3 ± 0.5 µM | 9.1 ± 0.6 µM |  | 15.7 ± 1 µM | 98 to 100 °C | 10.6 ± 0.9 µM | 8 ± 0.8 µM |  |  |  |  |  |  |  | 
7 | O=[N+]([O-])c1cccc(S(=O)(=O)N2CCN(c3ccnc4cc(Cl)ccc34)CC2)c1 [Compound 12, 7-Chloro-4-(4-(3-nitrophenylsulfonyl)piperazin-1-yl)quinoline] | 14.8 ± 0.2 µM | 25.1 ± 0.7 µM |  | 34.7 ± 0.7 µM | 138 to 140 °C | 15.5 ± 0.2 µM | 13.3 ± 0.2 µM |  |  |  |  |  |  |  | 
8 | O=S(=O)(c1ccc(-c2ccccc2)cc1)N1CCN(c2ccnc3cc(C(F)(F)F)ccc23)CC1 [Compound 18, 4-[4-(Biphenyl-4-sulfonyl)-piperazin-1-yl]-7-trifluoromethyl-quinoline] | 14.8 ± 0.2 µM | 20.5 ± 0.5 µM |  | 27.2 ± 0.6 µM | 148 to 150 °C | 15.5 ± 0.4 µM | 19.1 ± 0.2 µM |  |  |  |  |  |  |  | 
9 | CS(=O)(=O)N1CCN(c2ccnc3cc(Cl)ccc23)CC1 [Compound 7, 7-Chloro-4-(4-(methylsulfonyl)piperazin-1-yl)quinoline] | 22.9 ± 0.6 µM | 35.1 ± 0.8 µM |  | 42.7 ± 0.8 µM |  | 15.3 ± 0.1 µM | 11.5 ± 0.2 µM |  |  |  |  |  |  |  | 
10 | O=S(=O)(NCCCNc1ccnc2cc(Cl)ccc12)c1ccc(Cl)cc1Cl [Compound 29, 2,4-Dichloro-N-[3-(7-chloro-quinolin-4-ylamino)-propyl]-benzenesulfonamide] | 4 ± 0.2 µM | 3.6 ± 0.1 µM |  | 6.8 ± 0.6 µM | 145 to 147 °C | 6.8 ± 0.4 µM | 3.6 ± 0.2 µM |  |  |  |  |  |  |  | 
11 | COC(=O)c1sccc1S(=O)(=O)N1CCN(c2ccnc3cc(Cl)ccc23)CC1 [Compound 15, Methyl 3-(4-(7-chloroquinolin-4-yl)piperazin-1-ylsulfonyl)thiophene-2-carboxylate] | 22.4 ± 0.2 µM | 30.2 ± 0.7 µM |  | 40.4 ± 0.8 µM | 117 to 119 °C | 14.6 ± 0.1 µM | 15.2 ± 0.2 µM |  |  |  |  |  |  |  | 
12 | O=S(=O)(c1ccc(Cl)cc1)N1CCN(c2ccnc3cc(Cl)ccc23)CC1 [Compound 10, 7-Chloro-4-(4-(4-chlorophenylsulfonyl)piperazin-1-yl)quinoline] | 7.6 ± 0.1 µM | 16 ± 0.6 µM |  | 25.5 ± 0.7 µM |  | 8.7 ± 0.1 µM | 12.1 ± 0.2 µM | 3 fold |  |  |  |  |  |  | 
13 | COC(=O)c1sccc1S(=O)(=O)N1CCN(c2ccnc3cc(C(F)(F)F)ccc23)CC1 [Compound 24, 3-[4-(7-Trifluoromethyl-quinolin-4-yl)-piperazine-1-sulfonyl]-thiophene-2-carboxylic acid methyl ester] | 16 ± 0.2 µM | 23.9 ± 0.6 µM |  | 34.7 ± 0.7 µM | 117 to 119 °C | 15.8 ± 0.1 µM | 15.9 ± 0.1 µM |  |  |  |  |  |  |  | 
14 | CS(=O)(=O)NCCCNc1ccnc2cc(Cl)ccc12 [Compound 25, N-[3-(7-Chloro-quinolin-4-ylamino)-propyl]-methanesulfonamide] | 23.1 ± 0.9 µM | 28.6 ± 1 µM |  | 40.9 ± 1.5 µM |  | 39.1 ± 1.2 µM | 23.3 ± 0.9 µM |  |  |  |  |  |  |  | 
15 | COC(=O)c1sccc1S(=O)(=O)NCCCNc1ccnc2cc(Cl)ccc12 [Compound 33, 3-[3-(7-Chloro-quinolin-4-ylamino)-propylsulfamoyl]-thiophene-2-carboxylic acid methyl ester] | 4.22 µM | 4.18 µM |  | 5.97 µM |  | 16.5 µM | 15.7 µM |  | 4.2 ± 0.2 µM | 6.1 fold | 4.1 ± 0.3 µM | 6.1 ± 0.5 µM | 4.0 fold | 16.5 ± 0.8 µM | 15.7 ± 0.4 µM
16 | 7-Chloro-4-(4-(biphenylsulfonyl)piperazin-1-yl)quinoline [Compound 9] |  |  |  |  |  |  |  |  | 9.2 ± 0.2 µM |  | 18.2 ± 0.5 µM | 26.2 ± 0.6 µM |  | 12.4 ± 0.2 µM | 16.4 ± 0.2 µM
17 | O=[N+]([O-])c1cccc(S(=O)(=O)NCCCNc2ccnc3cc(Cl)ccc23)c1 [Compound 30, N-(3-(7-chloroquinolin-4-ylamino)propyl)-3-nitrobenzenesulfonamide] | 8.6 ± 0.4 µM | 9.2 ± 0.7 µM |  | 20.4 ± 1.2 µM |  | 31.1 ± 1.1 µM | 15.8 ± 0.9 µM |  |  |  |  |  |  |  | 
18 | O=S(=O)(NCCCNc1ccnc2cc(Cl)ccc12)c1ccc(Cl)cc1 [Compound 28, 4-Chloro-N-(3-(7-chloroquinolin-4-ylamino)propyl)benzenesulfonamide] | 4.3 ± 0.3 µM | 8.3 ± 0.7 µM | 3.5–4.4 fold | 11.8 ± 0.9 µM |  | 9.7 ± 0.1 µM | 6.4 ± 0.3 µM |  |  |  |  |  |  |  | 
